Series [1] concerns plasma protein. The series is described as follows: Plasma protein binding of DAP, present case. Conditions: patient plasma, DAP 7 mg/kg every 48 hours. It counts as in vitro ADME, human.
For series [2] the following is noted: present case, DAP 7 mg/kg every 48 hours, chronic renal failure, HPLC.
For series [3], the system named is patient. Conditions: present case.
For the next series, the system named is T cells. To be noted: present case.
The test system of series [4] is patient. Conditions: present case, rapid type.
Series [5] concerns patient. To be noted: present case (case 37).
For series [6], the system named is patients. Conditions: phase III clinical trials; cited from earlier work.
The subject of series [7] is patients. Conditions: FDA adverse event reporting system, 2004 to 2010; cited from earlier work.
The conditions of series [8]: healthy volunteers; DAP 6 mg/kg every 24 hours; cited from earlier work.
Series [9] concerns plasma protein. Conditions: healthy volunteers, escalating dose levels; cited from earlier work.
Series [10] deals with patients. Conditions: cited from earlier work.

Read-outs that look alike come from different tables or passages of the source.

`CCCCCCCCCC(=O)N[C@@H](Cc1c[nH]c2ccccc12)C(=O)N[C@H](CC(N)=O)C(=O)N[C@@H](CC(=O)O)C(=O)N[C@@H]1C(=O)NCC(=O)N[C@@H](CCCN)C(=O)N[C@@H](CC(=O)O)C(=O)N[C@H](C)C(=O)N[C@@H](CC(=O)O)C(=O)NCC(=O)N[C@H](CO)C(=O)N[C@@H]([C@H](C)CC(=O)O)C(=O)N[C@@H](CC(=O)c2ccccc2N)C(=O)O[C@@H]1C` [DAP, Daptomycin]: the “percentage of plasma protein-bound DAP” value in the series on plasma protein [1] amounted to 87.8%. Further, the “median plasma DAP Cmin” value in series [2] is 27400 ng/mL; in series [8], 9130 ng/mL. The “Skin tests, prick-puncture administration and patch tests, reaction” value in the series with patient [3] is reported as “negative”. In addition, the “drug lymphocyte stimulation test (DLST) reaction” value with T cells was “negative”. Also, the results for the intracutaneous test reaction entry with patient [4] and with patient [4] (listed as daptomycin) were “positive” and “positivity”, respectively. Further, in the series on patient [5] (DAP 7 mg/kg), the Imaging findings entry was “Bilateral, peripheral nodules and patchy consolidations”. The Prognosis entry with patient [5] (initial treatment withdrawal) is listed as “Recover”. For the same molecule, the “myopathic symptoms, patients” value in the series on patients [6] was 0.2%. Further, the “serum creatinine kinase (CK) elevation, patients” value with patients [6] is listed as 2.8%. In the series on patients [7], the “patients who developed DAP-associated EP” value is on record as 63 patients. The “percentage of DAP plasma protein binding” value in the series on plasma protein [9] was “consistent across dose levels”. For the same molecule, the “DAP Cmin associated with an increased probability of CK elevation” value in the series with patients [10] is 24300 ng/mL.
